The values that follow come from US20250186503A1, “METHODS AND COMBINATIONS FOR TREATMENT AND T CELL MODULATION” (Juno Therapeutics, Inc., priority 2018, published 2025).

Experiment [1] relates to Granta-519 or Raji target cells. The experiment is described as follows: Cytokine production and cytolytic activity of anti-CD19 CAR+ T cells with Granta-519 or Raji target cells. Type of experiment: cell-based, human. The procedure:
Similar studies as above were conducted using Granta-519 or Raji target cells to assess cytokine production and cytolytic activity of anti-CD19 CAR-expressing T cells upon co-culture with the target cells. As shown in FIG. 33B Raji cells were selected due to high expression of cell surface molecule CD19 when compared to Granta-519, as quantified by flow cytometry. Enumeration of CD19 was inferred by a standard curve generated using molecules of equivalent soluble fluorophore beads.
After 24 hours of culture cytokine production was monitored in the supernatant. […] Cytolytic activity also was measured for pooled donors over time of the co-culture.

Experiment [2] concerns phosphorylated STAT5. Put plainly: Phosphorylated STAT5 in CAR T cells incubated with conditioned supernatants. Type of experiment: cell-based, human. As to conditions: both concentrations used. The procedure:
Conditioned supernatants from stimulated CAR T cultures were harvested after overnight treatment and incubated with freshly thawed CAR T cells from three donors alone or in the presence of a blocking IL-2 antibody. After short term stimulation, CAR T cells were then assessed by flow cytometry for phosphorylated STAT5.

In experiment [3] the test system is Granta-519 tumor spheroids. The experiment is described as follows: Granta-519 tumor spheroids, concurrent versus rescue treatment of long-term stimulated CAR T cells. Details: cytokine levels at day 5: dose or concentration left out as unconfirmed. In kind it is cell-based, human. The procedure:
The long-term stimulated anti-CD19 CAR-expressing T cells were co-cultured by incubation with Granta-519 tumor spheroids and cells were assessed at various time points for cytolytic function and cytokine function. During concurrent treatments Compound 1 was present during the long-term stimulation but was not present during the co-culture with target cells. During the rescue treatment Compound 1 was not present during the long-term stimulation but was present during the co-culture with target cells.

The subject of experiment [4] is Granta-519 tumor spheroids. Put plainly: Granta-519 spheroid tumor growth assay after concurrent treatment during chronic stimulation. Type of experiment: cell-based, human. The text has this:
Averaged measurement of tumor spheroid size at various times following co-culture with CAR-T cells was monitored.
The log 2 fold change compared to control cells (chronically stimulated cells that had not been concurrently treated with immunomodulatory compound) is shown in FIG. 48E. […] The results further support that immunomodulatory compounds during conditions that can promote exhaustion, such as during chronic stimulation, can improve or preserve CAR T cell function and limit, reduce or prevent CAR T cell exhaustion.

Experiment [5] deals with K562.CD19, Raji cells or Granta-519 cells. The experiment is described as follows: Cytolytic activity against CD19+ tumor cells, rescue with Compound 2 after chronic stimulation. In kind it is cell-based, human. As to conditions: 0.001 μM or 0.01 μM during rechallenge; E:T 1:1. The procedure: Long-term, chronic stimulation was carried out by stimulation of CAR T cells with 30 μg/mL plate-bound anti-idiotypic (anti-ID) antibody for 6 days, substantially as described in Example 22.
The assessed CD19+tumor cells included K562 cells transduced with CD19 (K562.CD19), Raji cells or Granta-519 cells.

Experiment [6] has as its system RL CD19+ tumor cells. Put plainly: Acute cytolytic activity, anti-CD19 CAR T cells co-cultured with RL CD19+ tumor cells. In kind it is cell-based. The procedure:
Acute cytolytic activity was measured by tumor cell number over time.

The test system of experiment [7] is anti-CD19 CAR+ T cells. The experiment is described as follows: CD25 and PD-1 surface expression on anti-CD19 CAR+ T cells incubated with K562-CD19 cells. In kind it is cell-based, human. The procedure: After 120 hours of culture, cells were isolated and assessed by flow cytometry for surface expression of CD25 or PD-1 in CD4+ or CD8+ T cell subsets.
Experiment [8] relates to anti-CD19 CAR+ T cells. The experiment is described as follows: IL-10 in supernatants of anti-CD19 CAR+ T cells incubated with K562-CD19 cells. In kind it is cell-based, human. As to conditions: E:T 3:1 or 9:1, 24 hours.
For experiment [9], the system named is anti-BCMA CAR+ T cells. The experiment is described as follows: T cell markers on anti-BCMA CAR+ T cells stimulated with BCMA-conjugated beads. Type of experiment: cell-based, human. The procedure:
Approximately 1.5×10^6 CAR+ T cells were added to wells of a 12-well plate and were incubated with beads from a 200 μg/ml BCMA-conjugated bead composition at a ratio of CAR+ T cell to BCMA-conjugated bead of 1:0.3, 1:1 or 1:3 (approximately 0.5×10^6, 1.5, 10^6, and 4.5×10^6 beads per well, respectively). As controls, 5 μg/mL anti-CD3 antibody was coated to wells (sub-optimal concentration for stimulation) or cells were seeded in the absence of any agent (no stimulation control). […] The cells were incubated for four days and then analyzed by flow cytometry for surface expression of CD4, CD8, Tim3, PD-1, CD25 and CD69.
In a further experiment, anti-BCMA CAR-T cell compositions produced substantially as described in Example 1 were plated in 96-well plates at a density of 5×10^5 cells per well. The tested CAR-T cell compositions contained, on average, approximately 45% anti-BCMA CAR+ cells at plating. Cells from each composition were incubated for 18 hours in the presence of beads from a 5 μg/ml, 50 μg/ml, or 200 μg/ml BCMA-conjugated bead composition at a ratio of 1:1 T cells to beads. As a control, cells were incubated with anti-CD3/anti-CD28 antibody-conjugated beads (positive control) or no added agent (negative control). […] Following the incubation, the cells were treated with reagents that allowed for extracellular and intracellular antibody staining by flow cytometry for the transcription factors Blimp1, EOMES, GATA-3, ikaros, helios, and Tbet and markers CD25, CD31, and PD-1.

In experiment [10] the test system is PD-L1-mediated inhibition. The experiment is described as follows: Cytokine production with BCMA/PD-L1 conjugated beads. Type of experiment: cell-based, human. As to conditions: 1 μM, 24 hours, vs vehicle. The procedure:
In another study, to explore whether the lenalidomide-induced potentiation of CAR T activation and cytokine production could override PD-L1-mediated inhibition, cells were cultured in the presence of BCMA beads generated as described in Example 9, with or without additional conjugation of human recombinant PD-L1-Fc. […] Cytokine production was measured in the supernatant.

Experiment [11] has as its system OPM-2. As to conditions: read-out: sensitivity to lenalidomide; cited from earlier work.

On to `Cc1nc2cccc(N)c2c(=O)n1C1CCC(=O)NC1=O` (stereo not shown) [Compound 1, 3-(5-amino-2-methyl-4-oxo-4H-quinazolin-3-yl)-piperidine-2,6-dione], for which the IL-2 production result in [1] (100 or 1000 nM, 2.5:1 E:T, 24 hours) was “increase compared to control”. The IFN-γ production result in [1] (100 or 1000 nM, 2.5:1 E:T, 24 hours, CD8+ CAR-expressing T cells) was “concentration dependent increase”. The “cytolytic activity over time” value in experiment [1] (pooled donors, CD8+ CAR-expressing T cells) was “limited effect”. In addition, the “median fluorescence intensity of phosphorylated STAT5 (pSTAT5)” value in experiment [2] is on record as “increased”. The “cytokine levels at day 5” value in experiment [3] (concurrent treatment) was “enhanced IFN-γ”; in experiment [3] (delayed treatment with Compound 1) it was “enhanced production of both IFN-γ and TNF-α”. For the same molecule, the “tumor spheroid size at day 9” value in experiment [3] (concurrent treatment with long-term stimulation) and in experiment [3] (subsequent treatment after long-term stimulation) was “concentration dependent decrease in tumor volume” in each case.

With `O=C1CC[C@H](N2Cc3c(OCc4ccc(CN5CCOCC5)cc4)cccc3C2=O)C(=O)N1` [Compound 2, (S)-3-[4-(4-morpholin-4-ylmethyl-benzyloxy)-1-oxo-1,3-dihydro-isoindol-2-yl]-piperidine-2,6-dione], the “cytolytic function against Granta-519 tumor spheroids (tumor volume after 9 days)” value in [4] (0.001 μM or 0.01 μM concurrent) is on record as “significantly increased cytolytic function”. The IFNγ in supernatant result in experiment [4] (5 days co-culture, concurrent treatment) is on record as “statistically significant increase”. Also, the “improvement in cytolytic function compared with Compound 1” value in [4] (concurrent treatment) was “greater with concurrent treatment with Compound 2 than Compound 1”. Also, the “cytolytic activity (tumor cell number over time)” value in experiment [5] was “statistically significant improvement in cytolytic activity”. For the same molecule, the “RL tumor cell line sensitivity to monotherapy” value in experiment [6] (0.01 μM or 0.1 μM doses) was “sensitive”. For the same molecule, in experiment [6] (E:T 1:1), the “cytolytic CAR T cell function against RL tumor cells” value is listed as “improved cytolytic CAR T cell function”.

Turning to `Nc1cccc2c1CN(C1CCC(=O)NC1=O)C2=O` (stereo not shown) [lenalidomide, 3-(4-amino-1-oxo-1,3-dihydro-2H-isoindol-2-yl)piperidine-2,6-dione], the “CD25 expression in CD4+ and CD8+ T cells” value in [7] (1600 nM, E:T 2.5:1, 120 hours) is listed as “higher levels”. In experiment [7] (up to 1600 nM, 120 hours), the “surface expression of PD-1 in CD4+ or CD8+ T cells” value is recorded as “No difference”. Besides, in experiment [8], the “secretion and/or accumulation of IL-10 in supernatants” value was “dose-dependently increased”. In addition, in [9] (0.5 μM or 5 μM, 18 hours, all conditions), the “expression level of Ikaros” value was “decreased”. In experiment [9] (5 μM, 200 μg BCMA beads 1:1, three days), the “proliferative capacity of T cells (CTV dye)” value is reported as “increased”. In addition, the “surface expression of CD25 in CD4+ and CD8+ T cells” value in experiment [9] (BCMA-conjugated beads or anti-CD3 stimulation) is “further increased”. The “secreted cytokine levels in the presence of PD-L1” value in experiment [10] was “potentiated”. For the same molecule, the IC50 in experiment [11] is 37.4 µM.
